Test results reported in paper PMC9628899 (Antiviral Research, 2003).
Read-outs that look alike come from different tables or passages of the source.

Legend:
cowpox virus (CV) [1] = experiment: microbe, parasite or virus in culture; assay type: cell-based
vaccinia virus (VV) [2] = experiment: microbe, parasite or virus in culture; assay type: cell-based
in vitro = details: human
[3] = ref Barditch-Crovo et al., 1997; cited from earlier work
cowpox virus (CV) [4] = details: read-out: EC50 Cowpox; cited from earlier work
vaccinia virus = assay type: in vivo, mice; details: given orally; Kern, unpublished results
cowpox virus [5] = details: mouse, in vivo, po; cited from earlier work
vaccinia virus (VV) [6] = details: read-out: EC50 Vaccinia; Table 4; ref Kern et al. (2002); cited from earlier work
Variola = details: read-out: EC50 Variola; cited from earlier work
[7] = system: vaccinia, cowpox, monkeypox, and variola viruses; assay type: cell-based
Monkeypox = details: read-out: EC50 Monkeypox; cited from earlier work
cowpox virus [8] = system: cowpox virus; set-up: species or system mice; details: mouse, in vivo, po
[9] = Cowpox virus, HFF, read-out: EC50 CV
[10] = Orthopoxvirus vaccinia, HFF, read-out: EC50 VV
[11] = Cowpox virus, HFF, read-out: Cowpox virus EC50
[12] = Orthopoxvirus vaccinia, HFF, read-out: Vaccinia virus EC50

Nc1nc(=O)n([C@@H]2CS[C@H](CO)O2)cc1F [Coviracil]
EC50 (cowpox virus (CV) [1]; [9]): > 81 µM
EC50 (vaccinia virus (VV) [2]; [10]): > 81 µM

Nc1cccc(CN2C(=O)N(Cc3cccc(N)c3)[C@H](Cc3ccccc3)[C@H](O)[C@@H](O)[C@H]2Cc2ccccc2)c1 [Mozenavir]
EC50 (cowpox virus (CV) [1]; [9]): > 100 µM
EC50 (vaccinia virus (VV) [2]; [10]): > 100 µM

CC(C)OC(=O)OCOP(=O)(CO[C@H](C)Cn1cnc2c(N)ncnc21)OCOC(=O)OC(C)C [Viread]
EC50 (cowpox virus (CV) [1]; [9]): > 300 µM
EC50 (vaccinia virus (VV) [2]; [10]): > 300 µM

Nc1nc(NC2CC2)c2ncn(CCOCP(=O)(O)O)c2n1 [PME(N^6-cyclopropyl)DAP]
EC50 (cowpox virus (CV) [1]; read-out: Cowpox virus EC50): 28 ± 13 µM
CC50 (HFF cells): > 263 µM
EC50 (vaccinia virus (VV) [2]; read-out: Vaccinia virus EC50): 23 ± 6.9 µM

CC(C)OC(=O)OCOP(=O)(CO[C@H](C)Cn1cnc2c(N)ncnc21)OCOC(=O)OC(C)C [Bis(isopropoxycarbonyloxymethyl)PMPA, bis(isopropoxycarbonyloxymethyl)PMPA]
EC50 (cowpox virus (CV) [1]; [11]): > 157 µM
CC50 (in vitro): > 157 µM
EC50 (vaccinia virus (VV) [2]; [12]): > 157 µM

Cc1cn([C@H]2O[C@@H](CO)[C@H](O)[C@H]2F)c(=O)[nH]c1=O [Clevudine]
EC50 (cowpox virus (CV) [1]; [9]): > 300 µM
EC50 (vaccinia virus (VV) [2]; [10]): > 300 µM

Nc1nc2c(ncn2CCOCP(=O)(O)O)c(=O)[nH]1 [PMEG, 2-phosphonylmethoxyethyl guanine]
EC50 (cowpox virus (CV) [1]; read-out: Cowpox virus EC50): 11.4 ± 1.3 µM
CC50 (HFF cells): 88 µM
EC50 (vaccinia virus (VV) [2]; read-out: Vaccinia virus EC50): 4 ± 0.7 µM

Nc1nc2c(ncn2COCCO)c(=O)[nH]1 [Acyclovir]
EC50 (cowpox virus (CV) [1]; [9]): > 300 µM
EC50 (vaccinia virus (VV) [2]; [10]): > 300 µM

CCCCOC(=O)C(C)NP(=O)(COCCn1cnc2c(NC3CC3)nc(N)nc21)NC(C)C(=O)OCCCC (stereo not shown) [Bis(butylalaninyl) PME(N^6-cyclopropyl)DAP]
EC50 (cowpox virus (CV) [1]; read-out: Cowpox virus EC50): 0.26 ± 0.2 µM
CC50 (HFF cells): 49 ± 33 µM
EC50 (vaccinia virus (VV) [2]; read-out: Vaccinia virus EC50): 0.08 ± 0.01 µM

O=c1[nH]c(=O)n([C@@H]2O[C@H](CO)[C@@H](O)[C@@H]2O)cc1/C=C/Br [Sorivudine]
EC50 (cowpox virus (CV) [1]; [9]): > 100 µM
EC50 (vaccinia virus (VV) [2]; [10]): > 100 µM

O=c1[nH]c(=O)n([C@H]2C[C@H](O)[C@@H](CO)O2)cc1/C=C/Br [Brivudin]
EC50 (cowpox virus (CV) [1]; [9]): 66 µM
EC50 (vaccinia virus (VV) [2]; [10]): > 100 µM

CC(C)OC(=O)[C@H](C)N[P@](=O)(CO[C@H](C)Cn1cnc2c(N)ncnc21)Oc1ccccc1 [Isopropyl alaninylphenyl PMPA]
EC50 (cowpox virus (CV) [1]; [11]): 98.9 µM
CC50 (in vitro): > 143 µM
EC50 (vaccinia virus (VV) [2]; [12]): 23.5 µM

C=C1[C@H](CO)[C@@H](O)C[C@@H]1n1cnc2c(=O)[nH]c(N)nc21 [Entecavir]
EC50 (cowpox virus (CV) [1]; [9]): 85 µM
EC50 (vaccinia virus (VV) [2]; [10]): 53 µM

Nc1nc(=O)c2ncn([C@@H]3C[C@H](CO)[C@H]3CO)c2[nH]1 [Lobucavir]
EC50 (cowpox virus (CV) [1]; [9]): 66 µM
EC50 (vaccinia virus (VV) [2]; [10]): 27 µM

Butyl salicyl cyclic HPMPC
EC50 (cowpox virus (CV) [1]; read-out: Cowpox virus EC50): 34 ± 4.2 µM
CC50 (HFF cells): > 213 µM
EC50 (vaccinia virus (VV) [2]; read-out: Vaccinia virus EC50): 32 ± 13 µM

Nc1ccn([C@@H]2CS[C@H](CO)O2)c(=O)n1 [Lamivudine]
EC50 (cowpox virus (CV) [1]; [9]): > 400 µM
EC50 (vaccinia virus (VV) [2]; [10]): > 400 µM

CC(C)(C)C(=O)OCOP(=O)(COCCn1cnc2c(N)ncnc21)OCOC(=O)C(C)(C)C [Adefovir dipivoxil, bis(pivaloyloxymethyl)PMEA]
EC50 (cowpox virus (CV) [1]; [11]): 13 ± 8.8 µM
EC50 (cowpox virus (CV) [1]; [9]): 13 µM
CC50 (in vitro): 117 ± 27 µM
EC50 (vaccinia virus (VV) [2]; [10]): 5.1 µM
EC50 (vaccinia virus (VV) [2]; [12]): 5.1 ± 0.7 µM
oral bioavailability [3]: good oral bioavailability

CCOCn1c(Cc2ccccc2)c(C(C)C)c(=O)[nH]c1=O [Emivirine]
EC50 (cowpox virus (CV) [1]; [9]): > 300 µM
EC50 (vaccinia virus (VV) [2]; [10]): > 300 µM

CCCCCCCCCCCCCCCCOCCCOP(=O)(O)CO[C@H](CO)Cn1ccc(N)nc1=O [HDP-CDV, 3-hexadecyloxy-l-propanol CDV]
EC50 (cowpox virus (CV) [4]): 0.6 ± 0.3 µM
activity in vaccinia virus infection of mice (vaccinia virus): active orally
activity in cowpox virus-infected mice (cowpox virus [5]): active
EC50 (vaccinia virus (VV) [6]): 0.8 ± 0.4 µM
EC50 (Variola): 0.1 µM
active at levels -fold less than the parent molecules [7]: 50- to 200 fold
EC50 (Monkeypox): 0.07 µM
activity in cowpox virus infection of mice (cowpox virus [8]): active orally

Nc1ccn([C@@H]2O[C@H](CO)[C@@H](O)C2(F)F)c(=O)n1 [Gemcitabine]
EC50 (cowpox virus (CV) [1]; [9]): 0.017 µM
toxicity in vitro (in words) (HFF cells): very toxic
selectivity index (vaccinia virus (VV) [2]): > 200
EC50 (vaccinia virus (VV) [2]; [10]): 0.013 µM
